# Source: PMC12917756, “Unveiling BCL-xL-specific PROTAC efficiency and dissociation pathways using native mass spectrometry” (Chemical Science, 2026)
# Target: T1, VHL (VCB E3 ligase complex) (Homo sapiens, UniProt P40337)
# T1 construct: VCB complex (VHL·EloB·EloC); with Elongin B, Elongin C
# Assay: fluorescence polarization; ternary complex with BCL-xL by native MS
# Type: binding
# T1 sequence (P40337 whole entry): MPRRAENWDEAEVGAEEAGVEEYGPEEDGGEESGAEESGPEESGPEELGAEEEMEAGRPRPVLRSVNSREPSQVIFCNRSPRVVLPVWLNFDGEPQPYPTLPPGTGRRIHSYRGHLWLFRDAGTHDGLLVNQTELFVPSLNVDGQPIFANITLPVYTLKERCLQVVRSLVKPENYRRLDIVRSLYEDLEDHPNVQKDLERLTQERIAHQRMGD
# T1 sequence (Q15370 whole entry partner): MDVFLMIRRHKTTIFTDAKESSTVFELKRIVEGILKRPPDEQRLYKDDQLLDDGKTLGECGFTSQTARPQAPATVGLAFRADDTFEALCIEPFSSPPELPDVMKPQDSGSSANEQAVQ
# T1 sequence (Q15369 whole entry partner): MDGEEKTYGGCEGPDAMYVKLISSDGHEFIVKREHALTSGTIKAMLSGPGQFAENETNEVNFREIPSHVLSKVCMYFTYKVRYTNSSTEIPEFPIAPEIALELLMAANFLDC
smiles,measurement,value
Cc1ncsc1-c1ccc([C@H](C)NC(=O)[C@@H]2C[C@@H](O)CN2C(=O)[C@@H](NC(=O)CCCCCC(=O)N2CCN(CC[C@H](CSc3ccccc3)Nc3ccc(S(=O)(=O)NC(=O)c4ccc(N5CCN(CC6=C(c7ccc(Cl)cc7)CCC(C)(C)C6)CC5)cc4)cc3S(=O)(=O)C(F)(F)F)CC2)C(C)(C)C)cc1 [DT2216],IC50,10.6 µM
